Results reported in paper PMC10096391, “Discovery of N,4-Di(1H-pyrazol-4-yl)pyrimidin-2-amine-Derived CDK2 Inhibitors as Potential Anticancer Agents: Design, Synthesis, and Evaluation” (Molecules, 2023).

Columns and labels:
Type in all cases: cell-based
[1] = system: T98G glioblastoma cells; experiment: Cell viability assay (MTT/resazurin), T98G; conditions: Homo sapiens, read-out: Antiproliferative Activity, GI50
Source text: (§1) Cancer cell lines derived from leukemia (MV4-11 and U937), breast (MCF7 (Rb-positive) and MDA-MB-231(Rb-negative)), and ovarian (A2780, OVCAR5, OAW28, OV90, Cov318, and Cov504) cancers, and glioblastoma (U87, T98G and U251) were acquired from the cell bank at Drug Discovery and Development, University of South Australia, and cultured according to the American Type Culture Collection (ATCC) recommendation in Roswell Park Memorial Institute (RPMI)-1640, Dulbecco’s Modified Eagle’s Medium (DMEM), or Minimum Essential Media (MEM), with 10% fetal bovine serum (Sigma-Aldrich, Castle Hill, NSW, Australia) within a humidified incubator at 37 °C in the presence of 5% CO2.
(§2) The MTT (Life Technologies, Mulgrave, VIC, Australia) and resazurin (Sigma-Aldrich) assays were used to determine the antiproliferative activities of the compounds initially at 1 µM against the cancer cell lines stated above.

[2] = system: U87 glioblastoma cells; experiment: Cell viability assay (MTT/resazurin), U87; conditions: read-out: Antiproliferative Activity, GI50
Source text: as §1, §2

[3] = system: Cov318 ovarian cancer cells; experiment: Cell viability assay (MTT/resazurin), Cov318; conditions: read-out: Antiproliferative Activity, GI50
Source text: as §1, §2

[4] = system: OVCAR5 cells; experiment: Western blot analysis of OVCAR5 cells
Method: Western blot analysis of the compounds was carried out as previously reported. The antibodies were purchased from Cell Signaling Technology (Danvers, MA, USA).

[5] = system: MCF7 breast cancer cells; experiment: Cell viability assay (MTT/resazurin), MCF7; conditions: Homo sapiens, read-out: Antiproliferative Activity, GI50
Source text: as §1, §2

[6] = system: U937 leukemia cells; experiment: Cell viability assay (MTT/resazurin), U937; conditions: Homo sapiens, U-937, read-out: Antiproliferative Activity, GI50
Source text: as §1, §2

[7] = system: panel of 13 cancer cell lines; experiment: Antiproliferative activity, cancer cell line panel; conditions: all cancer cell lines tested; read-out: GI50 range over the cancer cell line panel
Source text: as §1, §2

[8] = system: U251 glioblastoma cells; experiment: Cell viability assay (MTT/resazurin), U251; conditions: Homo sapiens, U-251, read-out: Antiproliferative Activity, GI50
Source text: as §1, §2

[9] = system: OV90 cells; experiment: Colony formation (crystal violet), OV90; conditions: OV90, 10 days
Method: Briefly, ovarian cancer cells (i.e., A2780, OVCAR5, and OV90) seeded in six-well plates were adhered for 6 h and treated with 15. The medium that contained the compound was then changed every 72 h. Ten days after treatment, the cells were washed with PBS, fixed, and stained with crystal violet staining solution (0.05% crystal violet, 1% formaldehyde, 1% PBS, and 1% ethanol), and colonies were quantified using ImageJ software (National Institute of Health, Maryland, USA), with data presented as percentages of the control cells.

[10] = system: OAW28 ovarian cancer cells; experiment: Cell viability assay (MTT/resazurin), OAW28; conditions: Homo sapiens, OAW-28, read-out: Antiproliferative Activity, GI50
Source text: as §1, §2

[11] = system: MDA-MB-231 breast cancer cells; experiment: Cell viability assay (MTT/resazurin), MDA-MB-231; conditions: Homo sapiens, read-out: Antiproliferative Activity, GI50
Source text: as §1, §2

[12] = system: A2780 cells; experiment: Cell cycle analysis by flow cytometry, A2780; conditions: A2780, 2 µM, 48 h
Method: (§3) The effect of the compounds on cell cycle distribution was evaluated following a previously reported method. Briefly, six-well plates (Sigma-Aldrich, NSW, Australia) were seeded with about 1–2 × 10^5 cells/well in 2 mL growth medium, incubated at 37 °C and 5% CO2 overnight, and treated with various concentrations of the test compounds and incubated for 48 h. The wells were collected by trypsinization, transferred into fluorescence-activating cell sorting (FACS) tubes, washed with 1 × phosphate-buffered saline (1 × PBS) twice, fixed in 70% (v/v) ice-cold ethanol for 15 min, and centrifuged at 300× g for 5 min. The cell pellets were then collected, stained with 200 µL of the cell cycle solution (comprising 50.0 μg/mL PI, 0.1 mg/mL RNase A, and 0.05% Triton X-100), and incubated for 1.5 h at room temperature in the dark. Finally, the DNA content was determined by a flow cytometer (CytoFLEX) and analyzed by CytExpert 2.1 software (Beckman Coulter, Brea, CA, USA).

[13] = system: OVCAR5 cells; experiment: Annexin V/PI apoptosis assay, OVCAR5; conditions: 48 h
Method: Annexin V-fluorescein isothiocyanate (FITC) apoptosis detection kit I (consisting of a ten-time stock solution of binding buffer, FITC–annexin V, and PI staining solution) was used to determine the effect of the compounds on cancer cell survival as previously reported. Briefly, six-well plates (Sigma-Aldrich, NSW, Australia) were seeded with about 1–2 × 10^5 cells/well in 2 mL growth medium, incubated at 37 °C and 5% CO2 overnight, treated with various concentrations of the test compounds, and incubated for 48 h. The wells were collected by trypsinization, transferred into FACS tubes, washed twice with 1 × PBS, and centrifuged at 300× g for 5 min. The pellets were then suspended in 100 µL of 1 × binding buffer and incubated in the dark with 3 µL of PI and 3 µL of FITC-conjugated annexin V solutions for 15 min. Finally, 200 µL of binding buffer was added to each sample and analyzed by the CytoFLEX cytometer. The extent of apoptotic cell death was quantified as the sum of the percentages of early apoptotic cells (annexin V-positive and PI-negative) and late apoptotic cells (both annexin–V- and PI-positive) and presented graphically as a contour diagram relative to the untreated control.

[14] = system: Cov504 ovarian cancer cells; experiment: Cell viability assay (MTT/resazurin), Cov504; conditions: read-out: Antiproliferative Activity, GI50
Source text: as §1, §2

[15] = system: OVCAR5 cells; experiment: Cell cycle analysis by flow cytometry, OVCAR5; conditions: 48 h
Method: as §3

[16] = system: OV90 ovarian cancer cells; experiment: Cell viability assay (MTT/resazurin), OV90; conditions: Homo sapiens, OV-90, read-out: Antiproliferative Activity, GI50
Source text: as §1, §2

With `Cn1cc(-c2nc(Nc3cn[nH]c3)ncc2Cl)cn1` [Compound 15, 5-Chloro-4-(1-methyl-1H-pyrazol-4-yl)-N-(1H-pyrazol-4-yl)pyrimidin-2-amine] as the compound, how does the GI50 [1] read?
The GI50 was 380 nM.

And the GI50 [2]?
The GI50 was 560 nM.

What about the GI50 [3] of the same compound?
The GI50 was 488 nM.

And the “p-FAK(Ser732) level (CDK5 kinase activity in cells)” value ([4]; OVCAR5, 2 µM, 48 h)?
The value was “completely abolished”.

What about the “p-RNAPol-II(Ser2) level (CDK9 kinase activity in cells)” value ([4]; OVCAR5, 2 µM, 48 h) of the same compound?
The value was “completely abolished”.

And the “p-Rb(Thr821) level (CDK2 kinase activity in cells)” value ([4]; OVCAR5, 2 µM, 48 h)?
The value was “completely abolished”.

And the “anti-apoptotic protein MCL1” value ([4]; OVCAR5, 48 h)?
The value was “downregulation”.

What about the caspase-3 ([4]; OVCAR5, 48 h) of the same compound?
The caspase-3 was “cleavage”.

And the “phosphorylated histone H2AX (p-H2AX), DNA damage marker” value ([4]; OVCAR5, 48 h)?
The value was “appearance”.

And the GI50 [5]?
Its GI50 is 342 nM.

What about the GI50 [6] of the same compound?
The GI50 was 186 nM.

What about the GI50 [7] of the same compound?
The GI50 was 127 to 560 nM.

And the GI50 [8]?
The GI50 was 350 nM.

And the “effect on colony formation” value ([9]; 0.5 µM)?
Its value is “partial inhibition”.

And the “effect on colony formation” value ([9]; 15 at 0.5 and 2 µM, CYC065 at 0.5 µM)?
The value was “inhibited”.

And the GI50 [10]?
The GI50 was 534 nM.

And the GI50 [11]?
Its GI50 is 458 nM.

What about the S-phase cells [12] of the same compound?
Its S-phase cells is 26%.

And the viability at 0.5 µM ([13]; Homo sapiens, OVCAR-5, OVCAR5, 0.5 µM, read-out: Q1-LL, viable cells)?
The viability at 0.5 µM was 67.4%.

What about the viability at 2 µM ([13]; Homo sapiens, OVCAR-5, OVCAR5, 2 µM, read-out: Q1-LL, viable cells) of the same compound?
The viability at 2 µM was 57.8%.

What about the “apoptosis (annexin V positive, early + late)” value ([13]; OVCAR5, 0.5 µM) of the same compound?
The value was 30%.

What about the “apoptosis (annexin V positive, early + late)” value ([13]; OVCAR5, 2 µM) of the same compound?
Its value is 38%.

And the GI50 [14]?
Its GI50 is 540 nM.

What about the “increment in the subpopulation of G2/M cells compared to the vehicle control” value ([15]; OVCAR5, 0.5 µM) of the same compound?
The value was 39%.

What about the G2/M cells ([15]; OVCAR5, 2 µM) of the same compound?
The G2/M cells was 53%.

And the S-phase cells ([15]; OVCAR5, 2 µM)?
Its S-phase cells is 26%.

What about the GI50 [16] of the same compound?
The GI50 was 390 nM.
